Reference: publication PMC6934184, “Selective DNA-PKcs inhibition extends the therapeutic index of localized radiotherapy and chemotherapy” (The Journal of Clinical Investigation, 2019)

Target: T1, CSNK1A1 (CK1 alpha 1) (Homo sapiens, UniProt P48729)
T1 construct: purchased Thermo Fisher Scientific (Life Technologies) SelectScreen
Assay: SelectScreen Z'LYTE
Format: biochemical
Outline: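 Percent values come from Thermo SelectScreen profiling of NU5455, combining activity and binding assays. CSF1R was run in Z'LYTE format at Km app ATP, and CAMK1 in Adapta format with ATP listed at 10.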

T1 sequence (P48729 whole entry): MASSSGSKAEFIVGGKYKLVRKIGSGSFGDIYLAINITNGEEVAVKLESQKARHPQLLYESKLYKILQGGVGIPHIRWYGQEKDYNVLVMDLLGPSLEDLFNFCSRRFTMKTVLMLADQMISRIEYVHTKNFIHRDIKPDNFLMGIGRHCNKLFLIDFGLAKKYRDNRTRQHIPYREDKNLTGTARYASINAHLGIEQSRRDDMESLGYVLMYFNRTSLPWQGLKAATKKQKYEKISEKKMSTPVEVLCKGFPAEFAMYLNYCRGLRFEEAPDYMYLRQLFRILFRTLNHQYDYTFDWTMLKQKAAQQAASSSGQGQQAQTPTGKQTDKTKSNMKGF

## CN(C(=O)CN1CCOCC1)c1ccc2sc3c(-c4cccc5c(=O)cc(N6CC7CCC(C6)O7)oc45)cccc3c2c1 [NU5455]
  inhibition at 1 µM: 0.3%
